Several values for one entry are separate records, joined by “and”; a condition that tells them apart may be missing. Identical values can stand only once.
Molecular target: T1, Neuropeptide Y receptor type 2 (Rattus norvegicus, UniProt Q9ERC0)
T1 sequence (Q9ERC0 whole entry): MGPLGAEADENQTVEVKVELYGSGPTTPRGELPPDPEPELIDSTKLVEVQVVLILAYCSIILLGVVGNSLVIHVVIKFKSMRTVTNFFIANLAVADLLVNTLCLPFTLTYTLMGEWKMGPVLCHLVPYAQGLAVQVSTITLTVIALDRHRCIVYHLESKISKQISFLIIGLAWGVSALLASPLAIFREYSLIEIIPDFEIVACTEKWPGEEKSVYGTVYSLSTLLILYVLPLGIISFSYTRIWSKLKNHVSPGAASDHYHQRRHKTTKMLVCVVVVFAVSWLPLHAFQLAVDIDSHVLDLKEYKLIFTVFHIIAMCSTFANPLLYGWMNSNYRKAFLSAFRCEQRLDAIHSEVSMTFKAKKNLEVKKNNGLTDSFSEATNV

Ki | Compound
6.5 nM | NC(N)=NCCCC(NC(=O)CC1(CC(=O)N2CCN(C3c4ccccc4NC(=O)c4ccccc43)CC2)CCCC1)C(=O)NCCn1c(=O)n(-c2ccccc2)n(-c2ccccc2)c1=O (stereo not drawn) [NSC_5311024]
1.66 nM and 0.54 nM | CC(=O)N[C@@H](C)C(=O)N[C@@H](CO)C(=O)N[C@@H](CC(C)C)C(=O)N[C@@H](CCCNC(=N)N)C(=O)N[C@@H](Cc1cnc[nH]1)C(=O)N[C@@H](Cc1ccc(O)cc1)C(=O)N[C@@H](CC(C)C)C(=O)N[C@@H](CC(N)=O)C(=O)N[C@@H](CC(C)C)C(=O)N[C@H](C(=O)N[C@H](C(=O)N[C@@H](CCCNC(=N)N)C(=O)N[C@@H](CCC(N)=O)C(=O)N[C@@H](CCCNC(=N)N)C(=O)N[C@@H](Cc1ccc(O)cc1)C(N)=O)[C@@H](C)O)C(C)C [PYY, N-alpha-Ac, 22-36]

Compound | Ki
O=c1oc2ccccc2c(O)c1C1CC(c2ccc(-c3ccccc3)cc2)Cc2ccccc21 (stereo not drawn) [NSC_41735] | 1000 nM

— BindingDB's records for doi:10.1124/mol.60.1.124 (U410, 2001)
